A word on the melting point: it is the temperature of the solid-liquid transition.

The structures appear in SMILES notation.

In turn, `CC(=O)Nc1nc2c(Nc3ncnc4cc(Cl)ccc34)cccc2s1` [Example 2, N-[4-(7-Chloro-quinazolin-4-ylamino)-benzothiazol-2-yl]-acetamide] displayed a melting point of 229.8 °C.

The compound `Cl.Clc1ccc2c(Nc3ccc4c(c3)OCCO4)ncnc2c1` gave a melting point of 304 to 306 °C.

With `FC(F)(F)c1ccc(Nc2ncnc3c2CCN(c2ncccc2C(F)(F)F)C3)cn1` [Example 10, (6-Trifluoromethyl-pyridin-3-yl)-[7-(3-trifluoromethyl-pyridin-2-yl)-5,6,7,8-tetrahydro-pyrido[3,4-d]pyrimidin-4-yl]-amine], the melting point was 144.5 to 150 °C.

In turn, `CC(C)(C)c1ccc(Oc2ncnc3cc(-c4ncccc4C(F)(F)F)ccc23)cc1` [Example 17, 4-(4-tert-Butyl-phenoxy)-7-(3-trifluoromethyl-pyridin-2-yl)-quinazoline] came in with a melting point of 162 to 163 °C.
